# Laboratory results: patent US10548915B2, “Combination therapy for EV71 infection” (SUN JET BIOTECHNOLOGY INC., priority 2015, dated 2020)
# Test system: EV71 replication in RD cells
# Assay: anti-VP1 western blot of EV71-infected RD cells (VP1/vimentin ratio normalized to non-treated infected cells)
# Assay type: cell-based, enterovirus type 71 (EV71 strain 4643/TW/1998)
# Method: Antibodies—Used antibodies included rabbit anti-VP1 (GTX70007, 1:2000, GeneTex), mouse anti-vimentin (sc-6260, 1:1000, Santa Cruz).
# Cell lines, viruses and viral infection—RD (Human rhabdomyosarcoma, ATCC® CCL-136™) cells were grown in Dulbecco's modified Eagle's medium (Sigma, USA) containing 10% fetal bovine serum (Invitrogen, USA), at 5% CO2 and 37° C. EV71 strain 4643/TW/1998 (GeneBank accession number 1N544418.1) was kindly provided by Dr. Lih-Hwa Hwang at National Yang-Ming University, Taiwan. Viruses were added to RD cells which were cultured in DMEM containing 2% FBS. The newly generated viruses were titrated by cytopathology assay. For viral infection, cells were seeded at 80% confluency in 6-well dishes and grown overnight. Before challenge with viruses of 5 multiplicity of infection (MOI), old medium was replaced with serum-free medium. After 1 h adsorption of viruses, infected cells were cultured in DMEM with 10% FBS.
# Western blotting—Protein extracted from RD cells were resolved with electrophoresis. Protein were blotted onto a nitrocellulose membrane eletrophoretically and incubated with indicated antibodies. The immunoreactive bands were visualized with LAS-4000 (FUJIFLIM).
# [1] = single compound at 0.005 μM (so in the source), RD cells, EV71 MOI 5
# [2] = single compound at 5 μM, RD cells, EV71 MOI 5
Structure (SMILES),VP1 expression relative to non-treated infected cells [1],"anti-EV71 effect (VP1 expression), in words (single compound at 0.05 μM)","anti-EV71 effect (VP1 expression), in words (single compound at 5 μM)",VP1 expression relative to non-treated infected cells [2],further results
CC(=O)OC[C@H]1O[C@@H]([S-])[C@H](OC(C)=O)[C@@H](OC(C)=O)[C@@H]1OC(C)=O.CCP(CC)CC.[Au+] [auranofin],0.9,minimal effects,strong anti-EV71,0.05,–
C[C@@H]1O[C@@H](O[C@H]2C[C@@H](O)[C@]3(CO)[C@H]4[C@H](O)C[C@]5(C)[C@@H](C6=CC(=O)OC6)CC[C@]5(O)[C@@H]4CC[C@]3(O)C2)[C@H](O)[C@H](O)[C@H]1O [ouabain],–,–,–,–,"anti-EV71 effect (VP1 expression), in words (single compound at 0.005 μM): VP1 expression returning; anti-EV71 effect (VP1 expression), in words (single compound at 0.05-5 μM): strong blockage of EV71 expression"
CC[C@H]1CN2CCc3cc(OC)c(OC)cc3[C@@H]2C[C@@H]1C[C@H]1NCCc2cc(OC)c(OC)cc21 [emetine],–,VP1 expression returning,–,–,"anti-EV71 effect (VP1 expression), in words (single compound at 0.5-5 μM): strong blockage of EV71 expression"
O=C(Nc1ccc([N+](=O)[O-])cc1Cl)c1cc(Cl)ccc1O [niclosamide],0.9,minimal effects,strong anti-EV71,0.2,–
"CNCC[C@H](Oc1ccc(C(F)(F)F)cc1)c1ccccc1 [fluoxetine, S-(+)-fluoxetine]",–,–,–,–,"VP1 expression relative to non-treated infected cells (single compound, all tested concentrations (5, 0.5, 0.05 μM)): 0.9-1.0"
